Results as given in article PMC3445516 (PLoS ONE, 2012).
Like-named read-outs stand apart in the source and are kept apart here.

Experiments:
Assay in all cases: Ambit kinase profiling, competition binding
PAK4 = molecular target: T1, PAK4 (Homo sapiens, UniProt O96013)
T1 construct: purchased Ambit Biosciences (KINOMEscan)
Procedure: (§1) Also included in the kinase profile are four isoforms of PKC (δ, ε, η, θ) and eight isoforms of CAMKs (CAMKIα, δ, γ; CAMKIIα, β, δ, γ; CAMK4).
(§2) The global kinase profiling experiment was performed by Ambit Biosciences.

MEK4 = molecular target: T2, MEK4 (Homo sapiens, UniProt P45985)
T2 construct: purchased Ambit Biosciences (KINOMEscan)
T2 sequence (P45985 1-399): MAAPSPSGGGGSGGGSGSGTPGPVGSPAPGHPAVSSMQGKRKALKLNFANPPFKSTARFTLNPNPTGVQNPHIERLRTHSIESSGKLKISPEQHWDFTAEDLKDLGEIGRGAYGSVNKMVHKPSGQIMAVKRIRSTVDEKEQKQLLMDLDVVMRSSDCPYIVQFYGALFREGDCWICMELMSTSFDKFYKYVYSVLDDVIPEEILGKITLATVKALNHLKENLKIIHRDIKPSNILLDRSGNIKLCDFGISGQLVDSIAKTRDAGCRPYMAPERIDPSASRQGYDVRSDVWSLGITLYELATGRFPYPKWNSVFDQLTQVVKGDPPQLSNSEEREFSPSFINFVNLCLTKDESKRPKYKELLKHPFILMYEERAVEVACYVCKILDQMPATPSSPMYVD
Procedure: as §1, §2

CAMKIδ = molecular target: T3, CAMKIδ (Homo sapiens, UniProt Q8IU85); conditions: for competition: CAMKIδ, 10 µM
T3 construct: purchased Ambit Biosciences (KINOMEscan)
Procedure: as §1, §2

IRAK3 = molecular target: T4, IRAK3 (Homo sapiens, UniProt Q9Y616)
T4 construct: purchased Ambit Biosciences (KINOMEscan)
T4 sequence (Q9Y616 1-596): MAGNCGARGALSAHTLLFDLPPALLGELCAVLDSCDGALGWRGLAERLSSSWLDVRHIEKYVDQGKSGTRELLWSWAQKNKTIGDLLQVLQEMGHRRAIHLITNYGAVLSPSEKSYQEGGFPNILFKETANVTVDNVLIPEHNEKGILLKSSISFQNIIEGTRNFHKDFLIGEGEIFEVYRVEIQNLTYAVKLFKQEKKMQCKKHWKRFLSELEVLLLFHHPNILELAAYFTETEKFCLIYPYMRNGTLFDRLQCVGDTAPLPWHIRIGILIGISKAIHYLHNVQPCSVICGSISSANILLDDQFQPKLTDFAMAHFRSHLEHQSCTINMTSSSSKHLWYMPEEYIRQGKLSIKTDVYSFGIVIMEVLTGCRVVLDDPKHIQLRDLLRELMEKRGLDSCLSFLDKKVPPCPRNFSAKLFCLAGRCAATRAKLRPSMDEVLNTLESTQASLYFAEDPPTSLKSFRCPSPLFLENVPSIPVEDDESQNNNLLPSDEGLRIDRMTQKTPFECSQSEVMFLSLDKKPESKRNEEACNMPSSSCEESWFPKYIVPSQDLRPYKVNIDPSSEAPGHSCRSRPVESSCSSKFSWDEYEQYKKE
Procedure: as §1, §2

CSNK1G2 = molecular target: T5, CSNK1G2 (Homo sapiens, UniProt P78368); conditions: for % Competition: 10 µM
T5 construct: purchased Ambit Biosciences (KINOMEscan)
Procedure: as §1, §2

YANK3 = molecular target: T6, YANK3 (Homo sapiens, UniProt Q86UX6)
T6 construct: purchased Ambit Biosciences (KINOMEscan)
Procedure: as §1, §2

DDR2 = molecular target: T7, DDR2 (Homo sapiens, UniProt Q16832)
T7 construct: purchased Ambit Biosciences (KINOMEscan)
T7 sequence (Q16832 22-855): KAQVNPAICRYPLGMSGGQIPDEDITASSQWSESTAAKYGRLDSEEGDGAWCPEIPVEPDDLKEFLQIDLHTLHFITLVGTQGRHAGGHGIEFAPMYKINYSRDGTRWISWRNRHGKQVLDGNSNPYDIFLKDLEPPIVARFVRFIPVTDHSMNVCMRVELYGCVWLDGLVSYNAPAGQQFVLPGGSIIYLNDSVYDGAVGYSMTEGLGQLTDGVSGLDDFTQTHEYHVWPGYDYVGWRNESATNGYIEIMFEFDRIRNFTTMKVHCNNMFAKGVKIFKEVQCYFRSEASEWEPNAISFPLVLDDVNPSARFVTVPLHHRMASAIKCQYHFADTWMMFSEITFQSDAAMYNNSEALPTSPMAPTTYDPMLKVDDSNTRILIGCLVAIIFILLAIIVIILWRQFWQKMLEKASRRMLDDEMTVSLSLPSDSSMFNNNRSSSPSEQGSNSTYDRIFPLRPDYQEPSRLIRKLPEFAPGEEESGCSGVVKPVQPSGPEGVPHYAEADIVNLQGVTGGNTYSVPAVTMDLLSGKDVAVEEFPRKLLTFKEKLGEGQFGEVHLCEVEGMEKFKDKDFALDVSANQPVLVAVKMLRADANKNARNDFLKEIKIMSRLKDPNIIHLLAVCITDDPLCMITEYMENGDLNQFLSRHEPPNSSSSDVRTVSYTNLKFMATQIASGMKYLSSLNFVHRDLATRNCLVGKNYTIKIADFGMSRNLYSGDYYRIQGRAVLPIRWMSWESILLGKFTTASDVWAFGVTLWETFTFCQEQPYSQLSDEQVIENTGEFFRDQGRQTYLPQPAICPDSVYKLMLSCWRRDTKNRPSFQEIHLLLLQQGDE
Procedure: as §1, §2

T1 sequence (O96013 whole entry): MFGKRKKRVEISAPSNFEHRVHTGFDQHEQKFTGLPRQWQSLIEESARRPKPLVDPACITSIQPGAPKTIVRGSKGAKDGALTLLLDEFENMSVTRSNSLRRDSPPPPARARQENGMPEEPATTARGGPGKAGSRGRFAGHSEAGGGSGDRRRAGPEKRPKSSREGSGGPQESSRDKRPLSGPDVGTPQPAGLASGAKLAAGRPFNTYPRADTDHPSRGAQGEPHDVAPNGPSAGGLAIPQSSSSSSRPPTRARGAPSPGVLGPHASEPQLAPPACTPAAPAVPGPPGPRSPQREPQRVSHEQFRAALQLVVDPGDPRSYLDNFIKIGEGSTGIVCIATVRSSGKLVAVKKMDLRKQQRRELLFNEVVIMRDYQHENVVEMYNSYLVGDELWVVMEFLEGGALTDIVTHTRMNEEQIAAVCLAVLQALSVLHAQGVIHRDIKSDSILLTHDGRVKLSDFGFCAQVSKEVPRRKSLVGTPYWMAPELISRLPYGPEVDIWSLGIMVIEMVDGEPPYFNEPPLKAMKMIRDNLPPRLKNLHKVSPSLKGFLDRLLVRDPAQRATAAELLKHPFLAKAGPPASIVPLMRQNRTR
T3 sequence (Q8IU85 whole entry): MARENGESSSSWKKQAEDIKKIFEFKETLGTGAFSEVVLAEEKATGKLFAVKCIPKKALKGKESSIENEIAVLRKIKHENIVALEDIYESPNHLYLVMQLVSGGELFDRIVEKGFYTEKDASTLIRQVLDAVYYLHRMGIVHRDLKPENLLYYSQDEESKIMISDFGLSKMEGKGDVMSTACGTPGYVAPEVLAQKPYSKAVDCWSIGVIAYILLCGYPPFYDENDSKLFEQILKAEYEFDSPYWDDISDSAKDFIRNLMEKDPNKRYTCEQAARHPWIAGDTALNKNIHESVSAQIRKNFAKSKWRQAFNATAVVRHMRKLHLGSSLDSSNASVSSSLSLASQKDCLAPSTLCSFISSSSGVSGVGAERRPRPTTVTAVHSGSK
T6 sequence (Q86UX6 whole entry): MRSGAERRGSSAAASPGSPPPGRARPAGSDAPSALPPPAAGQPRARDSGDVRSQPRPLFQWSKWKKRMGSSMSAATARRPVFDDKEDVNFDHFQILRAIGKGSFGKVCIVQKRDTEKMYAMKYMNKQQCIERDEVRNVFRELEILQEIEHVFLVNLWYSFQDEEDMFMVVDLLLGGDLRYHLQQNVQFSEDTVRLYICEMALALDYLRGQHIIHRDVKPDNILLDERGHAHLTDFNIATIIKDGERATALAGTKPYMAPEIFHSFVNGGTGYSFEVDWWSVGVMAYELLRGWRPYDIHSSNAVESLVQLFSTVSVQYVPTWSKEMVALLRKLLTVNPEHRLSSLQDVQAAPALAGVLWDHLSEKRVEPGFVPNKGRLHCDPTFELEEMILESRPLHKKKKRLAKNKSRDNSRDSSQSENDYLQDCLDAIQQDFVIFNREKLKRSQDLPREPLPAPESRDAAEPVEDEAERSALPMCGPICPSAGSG
T5 sequence (P78368 whole entry): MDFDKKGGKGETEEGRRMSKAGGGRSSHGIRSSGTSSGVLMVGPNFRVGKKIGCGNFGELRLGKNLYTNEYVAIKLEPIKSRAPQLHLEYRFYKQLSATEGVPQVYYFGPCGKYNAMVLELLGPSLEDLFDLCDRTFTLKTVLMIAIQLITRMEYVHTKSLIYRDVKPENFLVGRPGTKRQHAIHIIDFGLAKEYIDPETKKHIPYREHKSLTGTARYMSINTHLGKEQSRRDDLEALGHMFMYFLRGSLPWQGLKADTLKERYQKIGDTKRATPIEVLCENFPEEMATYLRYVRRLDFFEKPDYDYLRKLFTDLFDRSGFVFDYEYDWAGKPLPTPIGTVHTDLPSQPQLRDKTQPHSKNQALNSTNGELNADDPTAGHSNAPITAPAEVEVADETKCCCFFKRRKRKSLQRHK

Row | Structure (SMILES) | inhibition at 10 µM (PAK4; PAK4, 10 µM, read-out: % Competition) [%] | inhibition at 10 µM (MEK4; MEK4, 10 µM, read-out: % Competition) [%] | competition (CAMKIδ) [%] | inhibition at 10 µM (IRAK3; IRAK3, 10 µM, read-out: % Competition) [%] | % Competition (CSNK1G2) [%] | inhibition at 10 µM (YANK3; YANK3, 10 µM, read-out: % Competition) [%] | inhibition at 10 µM (DDR2; DDR2, 10 µM, read-out: % Competition) [%] | inhibition at 10 µM (PAK4; read-out: % Competition) [%] | inhibition at 10 µM (MEK4; read-out: % Competition) [%] | inhibition at 10 µM (IRAK3; read-out: % Competition) [%] | inhibition at 10 µM (YANK3; read-out: % Competition) [%] | inhibition at 10 µM (DDR2; read-out: % Competition) [%] | inhibition at 10 µM (PAK4; PAK4, compound concentration 10 uM, read-out: Percent Competition) [%] | inhibition at 10 µM (MEK4; MEK4, compound concentration 10 uM, read-out: Percent Competition) [%] | inhibition at 10 µM (CAMKIδ; CAMK1D, compound concentration 10 uM, read-out: Percent Competition) [%] | inhibition at 10 µM (IRAK3; IRAK3, compound concentration 10 uM, read-out: Percent Competition) [%] | Percent Competition (CSNK1G2; compound concentration 10 uM) [%] | inhibition at 10 µM (YANK3; YANK3, compound concentration 10 uM, read-out: Percent Competition) [%] | inhibition at 10 µM (DDR2; DDR2, compound concentration 10 uM, read-out: Percent Competition) [%]
1 | Fc1ccc(-c2c(-c3ccncc3)[nH]c3nccnc23)cc1 [Compound 122] | 82 | 87 | < 50 | 75 | 82 | 67 | 100 | – | – | – | – | – | – | – | – | – | – | – | –
2 | CC(O)CNc1cc(-c2[nH]c3cccnc3c2-c2ccc(F)cc2)ccn1 (stereo not drawn) [Compound 140] | – | – | < 50 | – | 89 | – | – | < 50 | < 50 | < 50 | < 50 | 67 | – | – | – | – | – | – | –
3 | Fc1ccc(-c2c(-c3ccncc3)[nH]c3nccnc23)cc1 [RO1155697-000-005] | – | – | – | – | – | – | – | – | – | – | – | – | 82 | 87 | < 50 | 75 | 82 | 67 | 100
